Experimental data reported in patent US20070099841A1, “Prodrugs of T3 and T4 with enhanced bioavailability” (New River Pharmaceuticals Inc., priority 2005, published 2007).
Values joined by “and” are separate entries in the source; they are usually repeats but may differ in a detail not shown here. Equal values may be shown once. Read-outs that look alike come from different tables or passages of the source.

What was measured:
[1] = set-up: species or system Sprague-Dawley rats; details: rat, in vivo
Description: Compounds were tested in Sprague-dawley rats (˜250 g). Defined doses were delivered as oral solutions in 0.5% sodium bicarbonate buffer with T3 sodium salt containing 12 mcgT3/kg or triiodothyronine composition containing the equivalent amount of T3. Rats were dosed immediately following 0 hour serum collection. Serum was collected from rats at 2, 4, 6, 9, 12 and 24 hours after capsule delivery. Total serum T3 concentrations were determined by ELISA using a commercially available kit (Total Triiodothyronine (total T3) ELISA KIT, product #1700, ALPHA DIAGNOSTIC, San Antonio, Tex.). Total serum T4 concentrations were determined by ELISA using a commercially available kit (Total Thyronine (Total T4) ELISA KIT, product #1100, ALPHA DIAGNOSTIC, San Antonio, Tex.).
The general procedures described above were employed for the experimental data described below. These procedures are subject to minor variations in timing and weight of rats, etc.
(§1) T3 sodium, G-T3, V-T3, I-T3, Y-T3, A2-T3, P2-T3, or F2-T3 were administered at equimolar doses to Sprague-Dawley rats (12 μg/kg T3; HED˜120 μg T3 sodium; n=6, per group) that were hypothyroid due to removal of the thyroid gland approximately one week prior to evaluation. Serum was collected at 0 (pre-dose), 1, 2, 4, 6, 8 and 12 hours post-dose and analyzed for total T3 and TSH by chemiluminescent immunoassay (Immulite CIA). […] At 1 hour post dose the mean level of Total T3 was 327.3, 429.5, 432.7, 403.3, 431, and 433.1 ng/ml for G-T3, V-T3, I-T3, Y-T3, P2-T3, and F2-T3 dosed animals respectively as compared to 577 ng/ml for T3 sodium dosed animals. Applicants note that some variation in these values may be present as with A2-T3 (FIGS. 15 and 16).

TSH = assay: Serum TSH after oral administration to hypothyroid rats (chemiluminescent immunoassay); format: in vivo, Sprague-Dawley rats
Description: as §1

[2] = 0 h (pre-dose), mean n=6, oral 12 μg/kg T3
[3] = 1 h, mean n=6, oral 12 μg/kg T3
[4] = 2 h, mean n=6, oral 12 μg/kg T3
[5] = 4 h, mean n=6, oral 12 μg/kg T3
[6] = 6 h, mean n=6, oral 12 μg/kg T3
[7] = 8 h, mean n=6, oral 12 μg/kg T3
[8] = 12 h, mean n=6, oral 12 μg/kg T3

Row | SMILES | Total T3 AUC, % (of T3) [1] | Total T3Δ dAUC, % (of T3) [1] | Variability of T3 absorption compared with T3 sodium [1] | mean level of Total T3 at 1 hour post dose ([1]; po) | Tmax, % T3 ([1]; Sprague-Dawley) | Total T3 AUC, % (of T3) ([1]; Sprague-Dawley) | Total T3 AUClast, % T3 ([1]; Sprague-Dawley) | Total T3 Cmax, % T3 ([1]; Sprague-Dawley) | Total T3Δ AUClast, % T3 ([1]; Sprague-Dawley) | Total T3Δ Cmax, % T3 ([1]; Sprague-Dawley) | Total T3Δ dAUC, % (of T3) ([1]; Sprague-Dawley) | mean level of Total T3 at 1 hour post dose ([1]; Sprague-Dawley, po, 1 h) | TSH, mean (TSH; [2]) | TSH, mean (TSH; [3]) | TSH, mean (TSH; [4]) | TSH, mean (TSH; [5]) | TSH, mean (TSH; [6]) | TSH, mean (TSH; [7]) | TSH, mean (TSH; [8]) | TSH levels in response to administration (TSH; oral 12 μg/kg T3) | other results
1 | C[C@H](N)C(=O)N[C@@H](C)C(=O)N[C@@H](Cc1cc(I)c(Oc2ccc(O)c(I)c2)c(I)c1)C(=O)O [A2-T3] | 104.4% | 113.4% |  |  |  |  |  |  |  |  |  |  | 2.459 μIU | 2.11 μIU | 0.889 μIU | 0.292 μIU | 0.174 μIU | 0.182 μIU | 0.381 μIU | decreased rapidly | 
2 | N[C@@H](Cc1ccccc1)C(=O)N[C@@H](Cc1ccccc1)C(=O)N[C@@H](Cc1cc(I)c(Oc2ccc(O)c(I)c2)c(I)c1)C(=O)O [F2-T3] | 88.3% | 94.7% | decreased variability of T3 absorption | 433.1 ng/mL |  |  |  |  |  |  |  |  | 3.035 μIU | 2.192 μIU | 1.364 μIU | 0.405 μIU | 0.246 μIU | 0.242 μIU | 0.757 μIU | decreased rapidly | 
3 | CC[C@H](C)[C@H](N)C(=O)N[C@@H](Cc1cc(I)c(Oc2ccc(O)c(I)c2)c(I)c1)C(=O)O [I-T3] | 96.6% | 100.8% | decreased variability of T3 absorption | 432.7 ng/mL |  |  |  |  |  |  |  |  | 2.331 μIU | 2.218 μIU | 1.203 μIU | 0.351 μIU | 0.169 μIU | 0.131 μIU | 0.271 μIU | decreased rapidly | 
4 | N[C@@H](Cc1cc(I)c(Oc2ccc(O)c(I)c2)c(I)c1)C(=O)O [T3 sodium, 3,3′,5-triiodo-L-thyronine] |  |  |  |  | 100% | 100% | 100% | 100% | 100% | 100% | 100% | 577 ng/mL | 2.193 μIU | 2.032 μIU | 1.141 μIU | 0.243 μIU | 0.132 μIU | 0.136 μIU | 0.270 μIU | decreased rapidly | Tmax, Low − High ([1]; Sprague-Dawley): 1 − 6; Total T3 Tmax ([1]; Sprague-Dawley, po, 12 ug/kg): 3.2 h; Total T3 Tmax, mean ([1]; Sprague-Dawley, po, 12 ug/kg): 3.2 h; Total T3Δ Tmax, mean ([1]; Sprague-Dawley, po, 12 ug/kg): 3.2 h; Total T3 AUClast, Low − High [1]: 4292 − 6421 ng · h/dL; Total T3 Cmax, Low − High [1]: 484 − 915 ng/dL; Total T3Δ AUClast, Low − High [1]: 3688 − 5526 ng · h/dL; Total T3Δ Cmax, Low − High [1]: 444 − 875 ng/dL; Total T3 AUC ([1]; po, 12 ug/kg): 5171; Individual animal TSH (TSH; 0 h (pre-dose), individual animals 1-6, oral 12 μg/kg T3): 1.840 μIU and 2.296 μIU and 2.088 μIU and 2.480 μIU and 1.884 μIU and 2.572 μIU; Individual animal TSH (TSH; 1 h, individual animals 1-6, oral 12 μg/kg T3): 1.680 μIU and 1.796 μIU and 1.924 μIU and 2.580 μIU and 1.868 μIU and 2.344 μIU; Individual animal TSH (TSH; 2 h, individual animals 1-6, oral 12 μg/kg T3): 1.264 μIU and 1.284 μIU and 0.920 μIU and 1.116 μIU and 1.080 μIU and 1.180 μIU; Individual animal TSH (TSH; 4 h, individual animals 1-6, oral 12 μg/kg T3): 0.240 μIU and 0.252 μIU (2×) and 0.204 μIU and 0.200 μIU and 0.312 μIU; Individual animal TSH (TSH; 6 h, individual animals 1-6, oral 12 μg/kg T3): 0.116 μIU and 0.140 μIU and 0.136 μIU and 0.120 μIU (2×) and 0.160 μIU; Individual animal TSH (TSH; 8 h, individual animals 1-6, oral 12 μg/kg T3): 0.080 μIU and 0.156 μIU and 0.152 μIU and 0.132 μIU and 0.108 μIU and 0.188 μIU; Individual animal TSH (TSH; 12 h, individual animals 1-6, oral 12 μg/kg T3): 0.120 μIU and 0.260 μIU and 0.256 μIU and 0.416 μIU and 0.300 μIU; TSH, mean (TSH; 12 h, mean n=6, oral 12 μg/kg T3, listed as T3): 0.27 μIU

Now from value to compound, other results behind:

Row | Total T3 AUC, % (of T3) [1] | Total T3Δ dAUC, % (of T3) [1] | Variability of T3 absorption compared with T3 sodium [1] | mean level of Total T3 at 1 hour post dose ([1]; po) | Tmax, % T3 ([1]; Sprague-Dawley) | Total T3 AUC, % (of T3) ([1]; Sprague-Dawley) | Total T3 AUClast, % T3 ([1]; Sprague-Dawley) | Total T3 Cmax, % T3 ([1]; Sprague-Dawley) | Total T3Δ AUClast, % T3 ([1]; Sprague-Dawley) | Total T3Δ Cmax, % T3 ([1]; Sprague-Dawley) | Total T3Δ dAUC, % (of T3) ([1]; Sprague-Dawley) | mean level of Total T3 at 1 hour post dose ([1]; Sprague-Dawley, po, 1 h) | SMILES | TSH, mean (TSH; [2]) | TSH, mean (TSH; [3]) | TSH, mean (TSH; [4]) | TSH, mean (TSH; [5]) | TSH, mean (TSH; [6]) | TSH, mean (TSH; [7]) | TSH, mean (TSH; [8]) | TSH levels in response to administration (TSH; oral 12 μg/kg T3) | other results
5 |  |  |  |  | 125% | 88.1% | 89% | 79% | 89% | 78% | 90.9% | 327.3 ng/mL | Cl.NCC(=O)NC(Cc1cc(I)c(Oc2ccc(O)c(I)c2)c(I)c1)C(=O)O (centres unmarked) [G-T3, 2-(2-aminoacetoamido)-3-(4-(4-hydroxy-3-iodophenoxy)-3,5-diiodophenyl) propanoic acid, hydrochloride salt] | 2.021 μIU | 2.098 μIU | 1.289 μIU | 0.292 μIU | 0.162 μIU | 0.151 μIU | 0.427 μIU |  | Variability of T3 absorption compared with T3 sodium ([1]; Sprague-Dawley): decreased variability of T3 absorption; Release / absorption of T3 compared with T3 sodium ([1]; Sprague-Dawley, po): delayed release of T3; Individual animal TSH (TSH; 0 h (pre-dose), individual animals 1-6, oral 12 μg/kg T3, hydrochloride salt): 1.680 μIU and 2.584 μIU and 2.304 μIU and 1.956 μIU and 1.860 μIU and 1.740 μIU; Individual animal TSH (TSH; 1 h, individual animals 1-6, oral 12 μg/kg T3, hydrochloride salt): 2.660 μIU and 2.564 μIU and 2.392 μIU and 1.960 μIU and 1.612 μIU and 1.400 μIU; Individual animal TSH (TSH; 2 h, individual animals 1-6, oral 12 μg/kg T3, hydrochloride salt): 1.340 μIU and 1.472 μIU and 1.648 μIU and 1.160 μIU and 1.104 μIU and 1.008 μIU; Individual animal TSH (TSH; 4 h, individual animals 1-6, oral 12 μg/kg T3, hydrochloride salt): 0.364 μIU and 0.352 μIU and 0.296 μIU and 0.216 μIU and 0.276 μIU and 0.248 μIU; Individual animal TSH (TSH; 6 h, individual animals 1-6, oral 12 μg/kg T3, hydrochloride salt): 0.232 μIU and 0.172 μIU and 0.152 μIU and 0.112 μIU and 0.205 μIU and 0.100 μIU; Individual animal TSH (TSH; 8 h, individual animals 1-6, oral 12 μg/kg T3, hydrochloride salt): 0.232 μIU and 0.172 μIU and 0.136 μIU and 0.124 μIU and 0.168 μIU and 0.076 μIU; Individual animal TSH (TSH; 12 h, individual animals 1-6, oral 12 μg/kg T3, hydrochloride salt): 0.540 μIU and 0.612 μIU and 0.224 μIU and 0.548 μIU and 0.268 μIU and 0.372 μIU; TSH levels in response to administration (TSH; oral 12 μg/kg T3, hydrochloride salt): decreased rapidly
6 | 92.3% | 97.9% | decreased variability of T3 absorption | 431 ng/mL |  |  |  |  |  |  |  |  | O=C(O)[C@H](Cc1cc(I)c(Oc2ccc(O)c(I)c2)c(I)c1)NC(=O)[C@@H]1CCCN1C(=O)[C@@H]1CCCN1 [P2-T3] | 2.988 μIU | 2.438 μIU | 1.363 μIU | 0.346 μIU | 0.21 μIU | 0.189 μIU | 0.735 μIU | decreased rapidly | 
